Among the data in patent publication US8802849B2, “Tricyclic benzo[4,5]thieno-[2,3-d]pyrimidine-4-yl-amin derivatives, their salts, process for producing the compounds and their pharmaceutical use” (Vichem Chemie Kutató Kft., priority 2008, dated 2014) are inhibition, melting point and IC50 values, retold here.

One data set concerns the target ROCK2 (Homo sapiens, UniProt O75116). Put plainly: ROCK2 kinase assay. It is filed as biochemical. The following applies: 10 μM compound; read-out: ROCK2 percent of inhibition. The protocol: (§1) General description of the kinase assays: the kinase activity was assayed in 96-well microtiter plates at a final compound concentration of 10 μM in a total volume of 50 μl. Compounds were dissolved in 100% DMSO to prepare a 10 mM stock solution and than diluted with buffer to reach a 10 μM (or the required) final concentration. The kinase concentration was used to yield 10% ATP turn over. The ATP concentration was used at the KmATP and 12.5 μCi/ml adenosine 5′[γ-33P]triphosphate. The substrate concentration was used at 5 fold excess over the Km for the substrate. The reaction was incubated for 1 hour at room temperature and stopped by addition of 10 μl 50 mM EDTA. The assay was transferred to a 96 well MAPH filter plate (Millipore). The radioactivity was counted on a Microbeta microplate counter.

The target in another data set is EGFR (Homo sapiens, UniProt P00533). Put plainly: EGFR kinase assay (33P-ATP filter plate). The data set is classed as biochemical. As to conditions: for inhibition at 10 µM: 10 μM compound, read-out: EGFR percent of inhibition. The protocol: as §1
A further data set has as its target Kit (Homo sapiens, UniProt P10721). Description: Kit kinase assay. It is filed as biochemical. As to conditions: 10 μM compound; read-out: Kit percent of inhibition. The method, then:
as §1

Another data set deals with PDGFR-beta (Homo sapiens, UniProt P09619). Description: PDGFR-beta kinase assay. It is filed as biochemical. The following applies: 10 μM compound; read-out: PDGFR-beta percent of inhibition. The protocol:
as §1

Another data set has as its target P70S6K (Homo sapiens, UniProt P23443). Description: P70S6K kinase assay. It is filed as biochemical. As to conditions: 10 μM compound; read-out: P70S6K percent of inhibition. The protocol:
as §1

A further data set has as its target P56Lck (Homo sapiens, UniProt P06239). Put plainly: P56Lck kinase assay. The data set is classed as biochemical. The following applies: 10 μM compound; read-out: P56Lck percent of inhibition. The protocol: as §1
For another data set, the target named is T1, IKK-beta (Homo sapiens, UniProt O14920).
T1 sequence (O14920 1-756): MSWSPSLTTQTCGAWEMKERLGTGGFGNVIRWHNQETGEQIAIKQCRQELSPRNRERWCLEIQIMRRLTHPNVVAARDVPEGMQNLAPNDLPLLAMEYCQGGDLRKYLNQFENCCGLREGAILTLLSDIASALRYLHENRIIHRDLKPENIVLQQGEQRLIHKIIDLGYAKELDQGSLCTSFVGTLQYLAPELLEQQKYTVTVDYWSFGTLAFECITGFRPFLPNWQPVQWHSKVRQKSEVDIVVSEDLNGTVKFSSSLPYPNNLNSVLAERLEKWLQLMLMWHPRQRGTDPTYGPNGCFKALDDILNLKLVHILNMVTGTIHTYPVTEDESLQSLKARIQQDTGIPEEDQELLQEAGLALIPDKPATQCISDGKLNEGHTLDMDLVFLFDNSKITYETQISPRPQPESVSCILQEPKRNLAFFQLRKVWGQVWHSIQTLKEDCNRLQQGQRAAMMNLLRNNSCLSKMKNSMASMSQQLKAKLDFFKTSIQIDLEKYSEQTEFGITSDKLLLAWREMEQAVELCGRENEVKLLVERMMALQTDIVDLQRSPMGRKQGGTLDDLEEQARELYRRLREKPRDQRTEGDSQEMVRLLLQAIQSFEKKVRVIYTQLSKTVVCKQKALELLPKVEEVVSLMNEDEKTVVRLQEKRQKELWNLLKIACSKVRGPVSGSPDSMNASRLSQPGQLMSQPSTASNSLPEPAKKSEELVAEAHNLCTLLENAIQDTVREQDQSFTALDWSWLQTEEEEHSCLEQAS
Put plainly: IKK-beta kinase assay. The data set is classed as biochemical. The following applies: 10 μM compound; read-out: IKK-beta percent of inhibition. The method, then: as §1

The target of the next data set is cMet (Homo sapiens, UniProt P08581). Put plainly: cMet kinase assay. The data set is classed as biochemical. As to conditions: 10 μM compound; read-out: cMet percent of inhibition. The protocol: as §1
A further data set deals with CK1-alpha (Homo sapiens, UniProt P48729). Put plainly: CK1-alpha kinase assay. The data set is classed as biochemical. As to conditions: 10 μM compound; read-out: CK1-alpha percent of inhibition. The method, then: as §1
For a further data set, the target named is SRPK1 (Homo sapiens, UniProt Q96SB4). Description: SRPK1 kinase assay. It is filed as biochemical. As to conditions: 10 μM compound; read-out: SRPK1 percent of inhibition. The protocol:
as §1

In a further data set the target is AKT1/PKBa (Homo sapiens, UniProt P31749). Put plainly: AKT1/PKBa kinase assay. The following applies: 10 μM compound; read-out: AKT1/PKBa percent of inhibition. The data set is classed as biochemical. The protocol: as §1
The target of another data set is MAPK-ERK1 (Homo sapiens, UniProt P27361). Description: MAPK-ERK1 kinase assay. As to conditions: 10 μM compound; read-out: MAPK-ERK1 percent of inhibition. The data set is classed as biochemical. The protocol: as §1
In the next data set the target is CDK2/CycA (Homo sapiens, UniProt P24941). Description: CDK2/CycA kinase assay. As to conditions: 10 μM compound; read-out: CDK2/CycA percent of inhibition. The data set is classed as biochemical. The protocol: as §1
Another data set has as its target Jnk1a1 (Homo sapiens, UniProt P45983). Put plainly: Jnk1a1 kinase assay. The data set is classed as biochemical. The following applies: 10 μM compound; read-out: Jnk1a1 percent of inhibition. The method, then:
as §1

The target in the next data set is c-Raf (Homo sapiens, UniProt P04049). Put plainly: c-Raf kinase assay. The data set is classed as biochemical. The following applies: 10 μM compound; read-out: c-Raf percent of inhibition. The protocol:
as §1

In another data set the target is GSK-3beta (Homo sapiens, UniProt P49841). Description: GSK-3beta kinase assay. The data set is classed as biochemical. As to conditions: 10 μM compound; read-out: GSK-3beta percent of inhibition. The method, then:
as §1

The target of a further data set is Abl (Homo sapiens, UniProt P00519). Description: Abl kinase assay. The data set is classed as biochemical. The following applies: 10 μM compound; read-out: Abl percent of inhibition. The method, then:
as §1

For a further data set, the target named is c-Src (Homo sapiens, UniProt P12931). Description: c-Src kinase assay. As to conditions: 10 μM compound; read-out: c-Src percent of inhibition. It is filed as biochemical. The protocol:
as §1

A further data set has as its target RSK1 (Homo sapiens, UniProt Q15418). Description: RSK1 kinase assay. The data set is classed as biochemical. The following applies: 10 μM compound; read-out: RSK1 percent of inhibition. The method, then:
as §1

Another data set has as its target InsR (Homo sapiens, UniProt P06213). Description: InsR kinase assay. The data set is classed as biochemical. The following applies: 10 μM compound; read-out: InsR percent of inhibition. The protocol:
as §1

The melting point is the temperature, or range, at which the solid turns liquid. By IC50 is commonly meant the concentration that inhibits the measured activity by half. Read a low IC50 as greater potency in that assay.

RSK1, sequence (Q15418 whole entry, species assumed): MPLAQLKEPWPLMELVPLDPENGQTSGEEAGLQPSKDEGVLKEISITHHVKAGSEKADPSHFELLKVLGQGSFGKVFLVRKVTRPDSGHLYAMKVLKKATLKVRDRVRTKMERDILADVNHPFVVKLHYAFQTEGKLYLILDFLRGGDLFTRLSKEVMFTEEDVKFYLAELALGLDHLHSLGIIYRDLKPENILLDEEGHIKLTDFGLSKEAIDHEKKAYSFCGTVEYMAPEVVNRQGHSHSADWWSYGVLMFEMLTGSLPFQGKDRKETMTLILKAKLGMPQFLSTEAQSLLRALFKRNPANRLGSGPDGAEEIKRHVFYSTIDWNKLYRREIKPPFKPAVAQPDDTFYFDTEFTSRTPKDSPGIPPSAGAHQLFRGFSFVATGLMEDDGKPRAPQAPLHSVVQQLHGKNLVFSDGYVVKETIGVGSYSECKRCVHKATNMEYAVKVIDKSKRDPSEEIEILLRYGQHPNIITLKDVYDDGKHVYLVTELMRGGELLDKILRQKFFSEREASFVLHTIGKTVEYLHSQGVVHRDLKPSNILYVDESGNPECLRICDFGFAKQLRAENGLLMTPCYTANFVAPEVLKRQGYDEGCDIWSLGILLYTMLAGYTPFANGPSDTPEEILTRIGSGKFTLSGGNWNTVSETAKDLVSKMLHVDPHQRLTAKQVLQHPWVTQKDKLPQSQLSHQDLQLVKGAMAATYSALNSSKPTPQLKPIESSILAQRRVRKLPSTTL
Jnk1a1, sequence (P45983 1-384 isoform P45983-2): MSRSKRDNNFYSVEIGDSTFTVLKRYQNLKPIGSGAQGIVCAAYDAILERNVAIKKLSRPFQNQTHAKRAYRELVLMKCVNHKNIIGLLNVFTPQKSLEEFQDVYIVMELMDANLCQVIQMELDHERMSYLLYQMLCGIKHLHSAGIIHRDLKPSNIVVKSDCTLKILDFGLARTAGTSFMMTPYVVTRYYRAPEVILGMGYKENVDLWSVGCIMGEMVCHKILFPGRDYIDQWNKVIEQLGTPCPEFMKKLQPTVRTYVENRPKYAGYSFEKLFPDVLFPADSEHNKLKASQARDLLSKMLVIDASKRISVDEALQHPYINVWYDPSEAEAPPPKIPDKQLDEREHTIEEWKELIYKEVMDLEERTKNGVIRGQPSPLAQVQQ
MAPK-ERK1, sequence (P27361 whole entry): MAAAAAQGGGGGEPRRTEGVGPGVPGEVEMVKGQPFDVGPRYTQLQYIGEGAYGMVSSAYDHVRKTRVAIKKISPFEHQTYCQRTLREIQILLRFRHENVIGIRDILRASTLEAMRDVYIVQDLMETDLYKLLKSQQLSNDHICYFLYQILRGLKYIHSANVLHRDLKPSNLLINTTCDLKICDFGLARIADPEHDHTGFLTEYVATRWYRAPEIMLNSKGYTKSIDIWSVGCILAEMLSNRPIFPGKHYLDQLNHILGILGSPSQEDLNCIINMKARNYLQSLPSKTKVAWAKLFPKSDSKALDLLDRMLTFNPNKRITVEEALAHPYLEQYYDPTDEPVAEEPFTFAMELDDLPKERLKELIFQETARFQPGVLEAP
P70S6K, sequence (P23443 whole entry): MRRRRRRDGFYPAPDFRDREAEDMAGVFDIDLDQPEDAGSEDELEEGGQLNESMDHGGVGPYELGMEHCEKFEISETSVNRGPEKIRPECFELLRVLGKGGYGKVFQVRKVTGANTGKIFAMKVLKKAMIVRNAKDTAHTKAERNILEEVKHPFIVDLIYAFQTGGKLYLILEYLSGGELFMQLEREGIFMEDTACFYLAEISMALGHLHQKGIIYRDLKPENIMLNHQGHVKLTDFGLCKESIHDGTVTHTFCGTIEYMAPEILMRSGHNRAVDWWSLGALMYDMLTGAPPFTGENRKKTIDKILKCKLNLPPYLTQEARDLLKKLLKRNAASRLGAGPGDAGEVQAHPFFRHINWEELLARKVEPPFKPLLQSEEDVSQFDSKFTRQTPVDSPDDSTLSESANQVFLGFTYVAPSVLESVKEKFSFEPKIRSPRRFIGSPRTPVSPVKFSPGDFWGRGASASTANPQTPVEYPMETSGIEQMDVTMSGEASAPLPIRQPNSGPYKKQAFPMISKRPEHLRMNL
cMet, sequence (P08581 25-1390): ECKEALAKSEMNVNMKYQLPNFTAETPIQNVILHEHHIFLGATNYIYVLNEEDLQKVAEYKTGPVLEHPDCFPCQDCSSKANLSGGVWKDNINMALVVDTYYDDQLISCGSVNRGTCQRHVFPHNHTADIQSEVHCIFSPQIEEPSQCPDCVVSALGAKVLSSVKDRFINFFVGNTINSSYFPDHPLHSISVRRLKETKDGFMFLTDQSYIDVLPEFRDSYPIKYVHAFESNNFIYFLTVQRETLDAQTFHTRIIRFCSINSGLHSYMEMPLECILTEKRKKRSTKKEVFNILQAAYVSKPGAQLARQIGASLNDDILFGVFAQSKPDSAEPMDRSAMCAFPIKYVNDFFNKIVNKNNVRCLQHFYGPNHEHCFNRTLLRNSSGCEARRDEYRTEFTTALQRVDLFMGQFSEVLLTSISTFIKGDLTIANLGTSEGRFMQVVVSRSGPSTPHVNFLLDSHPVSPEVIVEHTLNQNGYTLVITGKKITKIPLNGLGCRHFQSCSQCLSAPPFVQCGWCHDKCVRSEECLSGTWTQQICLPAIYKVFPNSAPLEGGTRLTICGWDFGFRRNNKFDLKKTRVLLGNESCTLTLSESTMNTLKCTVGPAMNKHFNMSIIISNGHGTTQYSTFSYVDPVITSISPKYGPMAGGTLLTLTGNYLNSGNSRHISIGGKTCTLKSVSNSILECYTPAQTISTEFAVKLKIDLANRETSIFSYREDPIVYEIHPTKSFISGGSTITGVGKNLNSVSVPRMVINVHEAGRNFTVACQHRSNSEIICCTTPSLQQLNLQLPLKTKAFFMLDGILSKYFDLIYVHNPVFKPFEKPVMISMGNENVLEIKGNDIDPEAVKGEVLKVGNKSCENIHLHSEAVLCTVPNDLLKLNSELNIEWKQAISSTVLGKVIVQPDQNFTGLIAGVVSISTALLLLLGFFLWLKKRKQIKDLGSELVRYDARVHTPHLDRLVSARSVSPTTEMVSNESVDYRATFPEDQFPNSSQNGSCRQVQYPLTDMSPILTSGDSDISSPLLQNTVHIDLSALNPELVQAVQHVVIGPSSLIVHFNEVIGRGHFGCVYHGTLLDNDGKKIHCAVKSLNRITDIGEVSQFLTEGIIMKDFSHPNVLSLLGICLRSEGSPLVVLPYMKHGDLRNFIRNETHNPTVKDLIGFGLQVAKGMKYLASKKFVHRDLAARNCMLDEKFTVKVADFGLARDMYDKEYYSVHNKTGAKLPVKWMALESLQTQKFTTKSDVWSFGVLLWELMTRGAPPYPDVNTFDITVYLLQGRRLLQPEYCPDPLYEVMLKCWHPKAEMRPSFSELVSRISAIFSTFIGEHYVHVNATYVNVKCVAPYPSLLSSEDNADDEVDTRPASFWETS
SRPK1, sequence (Q96SB4 whole entry, species assumed): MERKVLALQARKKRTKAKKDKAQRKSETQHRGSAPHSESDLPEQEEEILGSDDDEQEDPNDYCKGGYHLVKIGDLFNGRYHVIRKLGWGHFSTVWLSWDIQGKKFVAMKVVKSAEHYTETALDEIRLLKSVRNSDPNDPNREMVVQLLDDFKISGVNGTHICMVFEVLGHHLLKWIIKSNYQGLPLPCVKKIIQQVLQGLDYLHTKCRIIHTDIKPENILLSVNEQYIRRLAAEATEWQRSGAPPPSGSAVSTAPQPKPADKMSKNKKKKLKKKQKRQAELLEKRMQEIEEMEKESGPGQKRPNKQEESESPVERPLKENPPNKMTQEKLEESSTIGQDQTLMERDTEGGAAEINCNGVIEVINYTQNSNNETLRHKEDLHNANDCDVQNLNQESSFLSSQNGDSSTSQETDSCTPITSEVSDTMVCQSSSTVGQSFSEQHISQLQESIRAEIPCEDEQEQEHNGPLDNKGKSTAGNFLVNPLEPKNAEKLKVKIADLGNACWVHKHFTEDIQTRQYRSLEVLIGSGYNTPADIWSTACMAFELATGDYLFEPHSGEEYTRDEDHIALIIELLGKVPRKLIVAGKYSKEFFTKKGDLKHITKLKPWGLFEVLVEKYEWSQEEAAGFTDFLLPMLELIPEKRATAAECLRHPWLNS
c-Src, sequence (P12931 whole entry, species assumed): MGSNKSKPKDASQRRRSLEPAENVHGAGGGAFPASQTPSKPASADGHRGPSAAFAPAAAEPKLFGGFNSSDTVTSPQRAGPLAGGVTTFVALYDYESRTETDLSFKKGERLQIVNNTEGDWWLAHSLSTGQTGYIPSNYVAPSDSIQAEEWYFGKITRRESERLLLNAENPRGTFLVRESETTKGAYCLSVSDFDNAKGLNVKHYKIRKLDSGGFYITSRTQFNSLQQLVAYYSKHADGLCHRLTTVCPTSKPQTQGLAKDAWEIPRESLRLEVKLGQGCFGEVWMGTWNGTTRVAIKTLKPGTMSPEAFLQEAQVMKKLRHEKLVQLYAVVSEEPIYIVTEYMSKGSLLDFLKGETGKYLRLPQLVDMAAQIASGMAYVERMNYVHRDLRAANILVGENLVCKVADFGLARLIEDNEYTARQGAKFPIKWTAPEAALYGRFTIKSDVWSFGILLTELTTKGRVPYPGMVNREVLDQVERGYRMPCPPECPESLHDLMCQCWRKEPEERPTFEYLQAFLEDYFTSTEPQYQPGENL
CK1-alpha, sequence (P48729 whole entry): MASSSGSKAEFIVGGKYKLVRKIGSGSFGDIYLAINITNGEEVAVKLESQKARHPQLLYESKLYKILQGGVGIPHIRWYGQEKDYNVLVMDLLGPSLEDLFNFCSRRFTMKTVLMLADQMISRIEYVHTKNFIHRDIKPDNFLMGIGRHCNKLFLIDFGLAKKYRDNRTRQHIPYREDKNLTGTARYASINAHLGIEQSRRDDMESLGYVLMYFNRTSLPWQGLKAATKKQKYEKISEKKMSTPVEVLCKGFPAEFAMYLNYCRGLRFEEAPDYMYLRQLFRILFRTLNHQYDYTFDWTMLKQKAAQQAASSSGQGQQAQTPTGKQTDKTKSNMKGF

`N#Cc1cccc(Nc2ncnc3sc4c(c23)CCCC4)c1` [Compound 5, 3-(5,6,7,8-Tetrahydro-benzo[4,5]thieno[2,3-d]pyrimidin-4-ylamino)-benzonitrile] came in with a melting point of 194.6 °C. The inhibition at 10 µM at ROCK2 was -2%. The inhibition at 10 µM on EGFR worked out at 99%. Moreover, the inhibition at 10 µM on Kit was -5%. Moreover, on PDGFR-beta, the inhibition at 10 µM is -5%. For the same molecule, the inhibition at 10 µM on P70S6K worked out at 1%. The inhibition at 10 µM at P56Lck was -5%. Moreover, on IKK-beta, the inhibition at 10 µM is 10%. Also, on cMet, the inhibition at 10 µM is -4%. Also, the inhibition at 10 µM at CK1-alpha worked out at 7%. In addition, the inhibition at 10 µM on SRPK1 was 7%. Further, the inhibition at 10 µM on AKT1/PKBa was -25%. The inhibition at 10 µM on MAPK-ERK1 was -5%. In addition, on CDK2/CycA, the inhibition at 10 µM worked out at 9%. Moreover, the inhibition at 10 µM at Jnk1a1 was -3%. The inhibition at 10 µM on c-Raf is 0%. On GSK-3beta, the inhibition at 10 µM is -6%. On Abl, the inhibition at 10 µM was -7%. Also, the inhibition at 10 µM on c-Src was determined as 8%. In addition, the inhibition at 10 µM on RSK1 stood at 19%. The inhibition at 10 µM on InsR was -7%.
`Clc1ccc(Nc2ncnc3sc4c(c23)CCCC4)cc1` [Compound 7, (4-Chloro-phenyl)-(5,6,7,8-tetrahydro-benzo[4,5]thieno[2,3-d]pyrimidin-4-yl)-amine]: the melting point was determined as 191.2 °C. Also, the inhibition at 10 µM on ROCK2 turned out to be 3%. Besides, the inhibition at 10 µM at EGFR amounted to 100%. Moreover, half-maximal inhibition against EGFR (EGFR-PTK assay) (IC50) required 12.8 nM. In addition, at Kit, the inhibition at 10 µM worked out at 10%. Besides, the inhibition at 10 µM at PDGFR-beta is 15%. For the same molecule, the inhibition at 10 µM at P70S6K was -17%. Also, the inhibition at 10 µM at P56Lck stood at 30%. Moreover, the inhibition at 10 µM on IKK-beta came out at 9%. Also, the inhibition at 10 µM at cMet was -7%. The inhibition at 10 µM on CK1-alpha turned out to be 5%. For the same molecule, the inhibition at 10 µM on SRPK1 is -3%. Besides, the inhibition at 10 µM on AKT1/PKBa was -11%. Also, at MAPK-ERK1, the inhibition at 10 µM is -9%. In addition, on CDK2/CycA, the inhibition at 10 µM was -1%. Moreover, at Jnk1a1, the inhibition at 10 µM was -7%. For the same molecule, the inhibition at 10 µM on c-Raf was -20%. Also, at GSK-3beta, the inhibition at 10 µM worked out at 2%. Further, the inhibition at 10 µM at Abl was -9%. In addition, the inhibition at 10 µM on c-Src is 25%. Moreover, the inhibition at 10 µM at RSK1 was -15%. In addition, the inhibition at 10 µM at InsR was -16%.
Molecule `Nc1ccc(Nc2ncnc3sc4c(c23)CCCC4)cc1` [Compound 8, N-(5,6,7,8-Tetrahydro-benzo[4,5]thieno[2,3-d]pyrimidin-4-yl)-benzene-1,4-diamine] registered a melting point of 203.1 °C. Moreover, the inhibition at 10 µM at ROCK2 was -11%. In addition, the inhibition at 10 µM at EGFR came out at 96%. For the same molecule, the inhibition at 10 µM on Kit was 20%. For the same molecule, at PDGFR-beta, the inhibition at 10 µM was 6%. Moreover, the inhibition at 10 µM at P70S6K amounted to 7%. Besides, at P56Lck, the inhibition at 10 µM was 2%. Besides, at IKK-beta, the inhibition at 10 µM was determined as 16%. For the same molecule, the inhibition at 10 µM at cMet was found to be 9%. At CK1-alpha, the inhibition at 10 µM turned out to be 4%. Further, the inhibition at 10 µM on SRPK1 was -4%. Also, on AKT1/PKBa, the inhibition at 10 µM is 4%. For the same molecule, the inhibition at 10 µM on MAPK-ERK1 worked out at 12%. On CDK2/CycA, the inhibition at 10 µM stood at 12%. Further, the inhibition at 10 µM on Jnk1a1 was determined as 20%. Further, the inhibition at 10 µM at c-Raf was 11%. Further, on GSK-3beta, the inhibition at 10 µM is 8%. The inhibition at 10 µM on Abl stood at 19%. On c-Src, the inhibition at 10 µM stood at 16%. In addition, the inhibition at 10 µM at RSK1 was found to be 6%. Further, on InsR, the inhibition at 10 µM turned out to be 36%.
